Patent US6153587A, “Conformationally constrained LH-RH analogues, their uses and pharmaceutical compositions containing them” (Laboratoire THERAMEX, priority 1996, dated 2000)

The compounds below were run against T1, LH-RH receptors (Rattus norvegicus, UniProt P30969) (assay: Affinity for LH-RH receptors: [125I]-buserelin binding to rat pituitary membranes). Conditions: 2 hours at 4° C., 20 to 70 μM [125I]-buserelin, Ki from IC50 by Cheng-Prusoff, read-out: pKi (affinity for LH-RH receptors) (converted).
T1 construct: from tissue; host or cells: rat pituitary membrane fraction (female Sprague Dawley)
T1 sequence (P30969 1-327): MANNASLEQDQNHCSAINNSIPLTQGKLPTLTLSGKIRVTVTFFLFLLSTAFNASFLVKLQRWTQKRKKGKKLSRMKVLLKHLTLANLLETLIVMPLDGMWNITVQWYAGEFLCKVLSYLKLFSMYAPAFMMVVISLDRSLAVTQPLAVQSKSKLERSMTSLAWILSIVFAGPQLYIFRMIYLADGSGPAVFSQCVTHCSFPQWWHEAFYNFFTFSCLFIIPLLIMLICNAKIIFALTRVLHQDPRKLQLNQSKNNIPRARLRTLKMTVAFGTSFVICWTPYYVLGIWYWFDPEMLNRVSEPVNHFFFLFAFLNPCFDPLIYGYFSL
Experimental: This affinity has been determined according to the following method:
Pituitaries from female Sprague Dawley rats were removed and homogenized with a Potter homogenizer in a 25 mM HEPES buffer (pH 7.4) containing 0.32 M sucrose, 100 μg/l PMSF (phenylmethylsulfonylfluoride), 5.6 U/l aprotinin and 10,000 U/l bacitracin. The homogenates were centrifuged at 700 g for 10 minutes and the supernatants were further centrifuged at 12,500 g for 30 minutes. The pellets were homogenized and centrifuged as described above, in the same buffer but without sucrose.
All homogenization, centrifugation and subsequent incubation steps were carried out at 4° C.
The assay was terminated by filtration under suction (Brandel 96-well harvester) through Whatman GF/B glass fiber filters. […] Each compound was tested in at least 4 experiments.
Specific binding data were analysed according to Scatchard's method.
For each test compound, the inhibitory constant (Ki) was calculated from its IC50 according to the Cheng and Prussofs equation: Ki=IC50 /(1+[radioligand]/Kd). Ki was then transformed into pKi (=-log Ki) for final expression of affinity scales.
In the case of `CCNC(=O)[C@@H]1CCCN1C(=O)[C@H](CCCNC(=N)N)NC(=O)[C@H](CC(C)C)N1CC[C@@]2(CCCN2C(=O)[C@H](Cc2ccc(O)cc2)NC(=O)[C@H](CO)NC(=O)[C@H](Cc2c[nH]c3ccccc23)NC(=O)[C@H](Cc2c[nH]cn2)NC(=O)[C@@H]2CCC(=O)N2)C1=O` [Example 9, pGlu-His-Trp-Ser-Tyr-SPL-Leu-Arg-Pro-NEt], the Ki is reported as 1.15 nM. `CCNC(=O)[C@@H]1CCCN1C(=O)[C@H](CCCNC(=N)N)NC(=O)[C@H](CC(C)C)N1CC[C@@]2(CCCN2C(=O)[C@H](Cc2ccc(O)cc2)NC(=O)[C@H](CO)NC(=O)[C@H](Cc2c[nH]c3ccccc23)NC(=O)[C@H](Cc2c[nH]cn2)NC(=O)CN(C)C(C)=O)C1=O` [Example 10, AcSar-His-Trp-Ser-Tyr-SPL-Leu-Arg-Pro-NEt] was tested, and the Ki was 6.17 nM. `CCNC(=O)[C@@H]1CCCN1C(=O)[C@H](CCCNC(=N)N)NC(=O)[C@H](CC(C)C)N1CC[C@@]2(CCCN2C(=O)[C@H](Cc2ccc(O)cc2)NC(=O)[C@H](CO)NC(=O)[C@H](Cc2cccc3ccccc23)NC(=O)[C@H](Cc2c[nH]cn2)NC(=O)[C@@H]2CCC(=O)N2)C1=O` [Example 11, pGlu-His-INal-Ser-Tyr-SPL-Leu-Arg-Pro-NEt] was tested, and the Ki was 0.427 nM. Compound `CCNC(=O)[C@@H]1CCCN1C(=O)[C@H](CCCNC(=N)N)NC(=O)[C@H](CC(C)C)N1CC[C@@]2(CCCN2C(=O)[C@H](Cc2ccc(O)cc2)NC(=O)[C@H](CO)NC(=O)[C@H](Cc2ccc3ccccc3c2)NC(=O)[C@H](Cc2c[nH]cn2)NC(=O)[C@@H]2CCC(=O)N2)C1=O` [Example 12, pGlu-His-Nal-Ser-Tyr-SPL-Leu-Arg-Pro-NEt] has a Ki of 0.105 nM. With `CCNC(=O)[C@@H]1CCCN1C(=O)[C@H](CCCNC(=N)N)NC(=O)[C@H](CC(C)C)N1CC[C@@]2(CCCN2C(=O)[C@H](Cc2ccc(O)cc2)NC(=O)[C@H](CO)NC(=O)[C@H](Cc2ccc3ccccc3c2)NC(=O)[C@H](Cc2c[nH]cn2)NC(=O)CN(C)C(C)=O)C1=O` [Example 13, AcSar-His-Nal-Ser-Tyr-SPL-Leu-Arg-Pro-NEt] the Ki was 1.05 nM. In the case of `CCNC(=O)[C@@H]1CCCN1C(=O)[C@H](CCCNC(=N)N)NC(=O)[C@H](CCC(C)C)N1CC[C@@]2(CCCN2C(=O)[C@H](Cc2ccc(O)cc2)NC(=O)[C@H](CO)NC(=O)[C@H](Cc2c[nH]c3ccccc23)NC(=O)[C@H](Cc2c[nH]cn2)NC(=O)[C@@H]2CCC(=O)N2)C1=O` [Example 15, pGlu-His-Trp-Ser-Tyr-SPL-Hol-Arg-Pro-NEt], the Ki is reported as 2.29 nM. `CCNC(=O)[C@@H]1CCCN1C(=O)[C@H](CCCNC(=N)N)NC(=O)[C@H](CC(C)(C)C)N1CC[C@@]2(CCCN2C(=O)[C@H](Cc2ccc(O)cc2)NC(=O)[C@H](CO)NC(=O)[C@H](Cc2c[nH]c3ccccc23)NC(=O)[C@H](Cc2c[nH]cn2)NC(=O)[C@@H]2CCC(=O)N2)C1=O` [Example 16, pGlu-His-Trp-Ser-Tyr-SPL-Npg-Arg-Pro-NEt] was tested, and the Ki was 0.55 nM. For `CCNC(=O)[C@@H]1CCCN1C(=O)[C@H](CCCNC(=N)N)NC(=O)[C@@H](N1CC[C@@]2(CCCN2C(=O)[C@H](Cc2ccc(O)cc2)NC(=O)[C@H](CO)NC(=O)[C@H](Cc2c[nH]c3ccccc23)NC(=O)[C@H](Cc2c[nH]cn2)NC(=O)[C@@H]2CCC(=O)N2)C1=O)C(C)(C)C` [Example 17, pGlu-His-Trp-Ser-Tyr-SPL-Tle-Arg-Pro-NEt], the Ki was 1.78 nM. Compound `CCCC[C@@H](C(=O)N[C@@H](CCCNC(=N)N)C(=O)N1CCC[C@H]1C(=O)NCC)N1CC[C@@]2(CCCN2C(=O)[C@H](Cc2ccc(O)cc2)NC(=O)[C@H](CO)NC(=O)[C@H](Cc2c[nH]c3ccccc23)NC(=O)[C@H](Cc2c[nH]cn2)NC(=O)[C@@H]2CCC(=O)N2)C1=O` [Example 18, pGlu-His-Trp-Ser-Tyr-SPL-Nle-Arg-Pro-NEt] has a Ki of 2.04 nM. `CC(C)C[C@@H](C(=O)N[C@@H](CCCNC(=N)N)C(=O)N1CCC[C@H]1C(=O)NCC(N)=O)N1CC[C@@]2(CCCN2C(=O)[C@H](Cc2ccc(O)cc2)NC(=O)[C@H](CO)NC(=O)[C@H](Cc2c[nH]c3ccccc23)NC(=O)[C@@H](Cc2ccccc2)NC(=O)[C@@H]2CCC(=O)N2)C1=O` [Example 20, pGlu-DPhe-Trp-Ser-Tyr-SPL-Leu-Arg-Pro-Gly-NH2] gave a Ki of 4.07 nM. Compound `CC(C)C[C@@H](C(=O)N[C@@H](CCCNC(=N)N)C(=O)N1CCC[C@H]1C(=O)N[C@H](C)C(N)=O)N1CC[C@@]2(CCCN2C(=O)[C@H](Cc2ccc(O)cc2)NC(=O)[C@H](CO)NC(=O)[C@H](Cc2c[nH]c3ccccc23)NC(=O)[C@@H](Cc2ccccc2)NC(=O)[C@@H]2CCC(=O)N2)C1=O` [Example 21, pGlu-DPhe-Trp-Ser-Tyr-SPL-Leu-Arg-Pro-DAlaNH2] has a Ki of 9.77 nM. With `CC(=O)N[C@H](Cc1ccc2ccccc2c1)C(=O)N[C@H](Cc1ccc(Cl)cc1)C(=O)N[C@H](Cc1c[nH]c2ccccc12)C(=O)N[C@@H](CO)C(=O)N[C@@H](Cc1ccc(O)cc1)C(=O)N1CCC[C@@]12CCN([C@@H](CC(C)C)C(=O)N[C@@H](CCCNC(=N)N)C(=O)N1CCC[C@H]1C(=O)N[C@H](C)C(N)=O)C2=O` [Example 22, AcDNal-DpClPhe-DTrp-Ser-Tyr-SPL-Leu-Arg-Prx)-DAlaNH2] the Ki was 0.891 nM. With `CC(=O)N[C@H](Cc1ccc2ccccc2c1)C(=O)N[C@H](Cc1ccc(Cl)cc1)C(=O)N[C@H](Cc1cccnc1)C(=O)N[C@@H](CO)C(=O)N[C@@H](Cc1ccc(O)cc1)C(=O)N1CCC[C@@]12CCN([C@@H](CC(C)C)C(=O)N[C@@H](CCCNC(=N)N)C(=O)N1CCC[C@H]1C(=O)N[C@H](C)C(N)=O)C2=O` [Example 23, AcDNal-DpClPhe-DPal-Ser-Tyr-SPL-Leu-Arg-Pro-DAlaNH2] the Ki was 0.155 nM. With `CC(=O)N[C@H](Cc1ccc2ccccc2c1)C(=O)N[C@H](Cc1ccc(Cl)cc1)C(=O)N[C@H](Cc1csc2ccccc12)C(=O)N[C@@H](CO)C(=O)N[C@@H](Cc1ccc(O)cc1)C(=O)N1CCC[C@@]12CCN([C@@H](CC(C)C)C(=O)N[C@@H](CCCNC(=N)N)C(=O)N1CCC[C@H]1C(=O)N[C@H](C)C(N)=O)C2=O` [Example 24, AcDNal-DpClPhe-DBal-Ser-Tyr-SPL-Leu-Arg-Pr-DAlaNH2] the Ki was 0.251 nM. `CC(=O)N[C@H](Cc1ccc2ccccc2c1)C(=O)N[C@H](Cc1ccc(Cl)cc1)C(=O)N[C@H](Cc1cccnc1)C(=O)N[C@@H](CO)C(=O)N[C@@H](Cc1ccc(O)cc1)C(=O)N1CCC[C@@]12CCN([C@@H](CC(C)(C)C)C(=O)N[C@@H](CCCNC(=N)N)C(=O)N1CCC[C@H]1C(=O)N[C@H](C)C(N)=O)C2=O` [Example 25, AcDNal-DpClPhe-DPal-Ser-Tyr-SPL-Npg-Arg-Pro-DAlaNH2] showed a Ki of 0.245 nM. Compound `CC(=O)N[C@H](Cc1ccc2ccccc2c1)C(=O)N[C@H](Cc1ccc(Cl)cc1)C(=O)N[C@H](Cc1cccnc1)C(=O)N[C@@H](CO)C(=O)N[C@@H](CCCCNC(=O)c1cccnc1)C(=O)N1CCC[C@@]12CCN([C@@H](CC(C)(C)C)C(=O)N[C@@H](CCCNC(=N)N)C(=O)N1CCC[C@H]1C(=O)N[C@H](C)C(N)=O)C2=O` [Example 26, AcDNal-DpClPhe-DPal-Ser-NicLys-SPL-Npg-Arg-Pro-DAlaNH2] has a Ki of 0.263 nM. Compound `CC(=O)N[C@H](Cc1ccc2ccccc2c1)C(=O)N[C@H](Cc1ccc(Cl)cc1)C(=O)N[C@H](Cc1cccnc1)C(=O)N[C@@H](CO)C(=O)N[C@@H](CCCCNC(C)C)C(=O)N1CCC[C@@]12CCN([C@@H](CC(C)(C)C)C(=O)N[C@@H](CCCNC(=N)N)C(=O)N1CCC[C@H]1C(=O)N[C@H](C)C(N)=O)C2=O` [Example 27, AcDNal-DpCtPhe-DPal-Ser-IprLys-SPL-Npg-Arg-Pro-DAlaNH2] has a Ki of 0.0977 nM. With `CC(=O)N[C@H](Cc1ccc2ccccc2c1)C(=O)N[C@H](Cc1ccc(Cl)cc1)C(=O)N[C@H](Cc1cccnc1)C(=O)N[C@@H](CO)C(=O)N[C@@H](Cc1ccc(O)cc1)C(=O)N1CCC[C@@]12CCN([C@@H](CC(C)(C)C)C(=O)N[C@@H](CCCCNC(C)C)C(=O)N1CCC[C@H]1C(=O)N[C@H](C)C(N)=O)C2=O` [Example 28, AcDNal-DpCtPhe-DPal-Ser-Tyr-SPL-Npg-IprLys-Pro-DAlaNH2] the Ki was 0.309 nM. In the case of `CC(=O)N[C@H](Cc1ccc2ccccc2c1)C(=O)N[C@H](Cc1ccc(Cl)cc1)C(=O)N[C@H](Cc1cccnc1)C(=O)N[C@@H](CO)C(=O)N[C@@H](CCCCNC(=O)c1cccnc1)C(=O)N1CCC[C@@]12CCN([C@@H](CC(C)(C)C)C(=O)N[C@@H](CCCCNC(C)C)C(=O)N1CCC[C@H]1C(=O)N[C@H](C)C(N)=O)C2=O` [Example 29, AcDNal-DpClPhe-DPal-Ser-NicLys-SPL-Npg-IprLys-Pro-DAlaNH2], the Ki is reported as 0.363 nM.
